# According to patent publication US5935990A, “Substituted pyrrolyl compounds for the treatment of inflammation” (G.D. Searle & Co., priority 1997, dated 1999):
# pIC50: −log10 of the molar value.
# Tested on: not listed separately
# Assay: Analgesia (Table I)
# Format: in vivo
# Conditions: not given
row,Structure (SMILES),ANALGESIA % Inhibition @ 30mg/kg body weight [%]
1,"CS(=O)(=O)c1ccc(-n2cccc2-c2ccc(F)cc2)cc1 [Example 8, 2-(4-Fluorophenyl)--1-[4-(methylsulfonyl)phenyl]-1H-pyrrole]",47

# Tested on: rat paw edema
# Assay: Rat Carrageenan Foot Pad Edema Test
# Format: in vivo, rat (Male Sprague-Dawley)
# Conditions: oral, 3 h after carrageenan injection
# Description: The carrageenan foot edema test was performed with materials, reagents and procedures essentially as described by Winter, et al., (Proc. Soc. Exp. Biol. Med., 111, 544 (1962)). Male Sprague-Dawley rats were selected in each group so that the average body weight was as close as possible. Rats were fasted with free access to water for over sixteen hours prior to the test. The rats were dosed orally (1 mL) with compounds suspended in vehicle containing 0.5% methylcellulose and 0.025% surfactant, or with vehicle alone. One hour later a subplantar injection of 0.1 mL of 1% solution of carrageenan/sterile 0.9% saline was administered and the volume of the injected foot was measured with a displacement plethysmometer connected to a pressure transducer with a digital indicator. Three hours after the injection of the carrageenan, the volume of the foot was again measured. The average foot swelling in a group of drug-treated animals was compared with that of a group of placebo-treated animals and the percentage inhibition of edema was determined (Otterness and Bliven, Laboratory Models for Testing NSAIDs, in Non-steroidal Anti-Inflammatory Drugs, (J. Lombardino, ed. 1985)).
row,Structure (SMILES),RAT PAW EDEMA % Inhibition @ 30mg/kg body weight [%]
1,"CS(=O)(=O)c1ccc(-n2cccc2-c2ccc(F)cc2)cc1 [Example 8, 2-(4-Fluorophenyl)--1-[4-(methylsulfonyl)phenyl]-1H-pyrrole]",56

# Tested on: COX-1
# Assay: Assay for COX-1 activity in vitro (PGE2 formed, ELISA)
# Format: biochemical, human or murine
# Conditions: recombinant COX-1 from SF9 insect cells, arachidonic acid 10 μM, pH 8.0, 10-20 min pre-incubation
# Description: The COX-2 inhibition activity of the compounds of this invention illustrated in the Examples was determined by the following methods.
# a. Preparation of recombinant COX baculoviruses
# Recombinant baculoviruses were isolated by transfecting 4 μg of baculovirus transfer vector DNA into SF9 insect cells (2×10^8) along with 200 ng of linearized baculovirus plasmid DNA by the calcium phosphate method. See M. D. Summers and G. E. Smith, A Manual of Methods for Baculovirus Vectors and Insect Cell Culture Procedures, Texas Agric. Exp. Station Bull. […] Recombinant viruses were purified by three rounds of plaque purification and high titer (10^7-10^8 pfu/mL) stocks of virus were prepared. For large scale production, SF9 insect cells were infected in 10 liter fermentors (0.5×10^6 /mL) with the recombinant baculovirus stock such that the multiplicity of infection was 0.1. […] The homogenate was centrifuged at 10,000×G for 30 minutes, and the resultant supernatant was stored at -80° C. before being assayed for COX activity.
# COX activity was assayed as PGE2 formed/pg protein/time using an ELISA to detect the prostaglandin released. CHAPS-solubilized insect cell membranes containing the appropriate COX enzyme were incubated in a potassium phosphate buffer (50 mM, pH 8.0) containing epinephrine, phenol, and heme with the addition of arachidonic acid (10 μM). […] The PGE2 formed was measured by standard ELISA technology (Cayman Chemical).
row,Structure (SMILES),pIC50
1,"CS(=O)(=O)c1ccc(-c2cccn2-c2ccc(F)cc2)cc1 [Example 10, 1-(4-Fluorophenyl)-2-[4-(methylsulfonyl)phenyl]-1H-pyrrole]",< 4.00
2,"Cc1c(COc2cccc(Cl)c2)cc(-c2ccc(S(C)(=O)=O)cc2)n1-c1ccc(F)cc1 [Example 25, 3-[(3-Chlorophenoxy)methyl]-1-(4-fluorophenyl)-2-methyl-5-[4-(methylsulfonyl)phenyl]-1H-pyrrole]",< 4.00
3,"Cc1c(COc2ccc(Cl)cc2)cc(-c2ccc(S(C)(=O)=O)cc2)n1-c1ccc(F)cc1 [Example 26, 3-[(4-Chlorophenoxy)methyl]-1-(4-fluorophenyl)-2-methyl-5-[4-(methylsulfonyl)phenyl]-1H-pyrrole]",< 4.00
4,"Cc1c(S(=O)(=O)C(F)(F)F)cc(-c2ccc(S(C)(=O)=O)cc2)n1-c1ccc(F)cc1 [Example 16, 1-(4-Fluorophenyl)-2-methyl-5-[4-(methylsulfonyl)phenyl]-3-[(trifluoromethyl)sulfonyl]-1H-pyrrole]",< 4.00
5,"Cc1ccc(-c2ccc(S(C)(=O)=O)cc2)n1C1CCCCC1 [Example 7, 1-Cyclohexyl-2-methyl-5-[4-(methylsulfonyl)phenyl]-1H-pyrrole]",4.20
6,"NS(=O)(=O)c1ccc(-n2cccc2-c2ccc(F)cc2)cc1 [Example 9, 4-[2-(4-Fluorophenyl)-1H-pyrrol-1-yl]benzenesulfonamide]",4.98
7,"Cc1ccc(-c2ccc(S(C)(=O)=O)cc2)n1-c1ccc(F)cc1 [Example 1, 1-(4-Fluorophenyl)-2-methyl-5-[4-(methylsulfonyl)phenyl]-1H-pyrrole]",< 4.00
